How the values were obtained:
Settings in all cases: growth mode: biofilm, 24 h; exposure time: 24 h
colistin [1] = compound: T1, CCC(C)CCCC(=O)N[C@@H](CCN)C(=O)N[C@H](C(=O)N[C@@H](CCN)C(=O)N[C@H]1CCNC(=O)[C@H]([C@@H](C)O)NC(=O)[C@H](CCN)NC(=O)[C@H](CCN)NC(=O)[C@H](CC(C)C)NC(=O)[C@@H](CC(C)C)NC(=O)[C@H](CCN)NC1=O)[C@@H](C)O [colistin]; test: minimum concentration eradicating biofilm below detection limit (MCK-E); higher = more biofilm tolerance
Description: (§1)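 Clinical P. aeruginosa isolates were grown as static biofilms for 24 h at 37 °C in LB in half-area 96-well plates, then exposed for 24 h to colistin at 1, 4, 16, 64, 256 or […]. Surviving CFU were counted by spotting serial dilutions. MCK is the lowest tested concentration giving the stated log reduction in CFU versus an untreated control; '>1024' means the reduction was not reached at the top dose, and 1 is the lowest dose tested (≤1).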

tobramycin [2] = compound: T2, NC[C@H]1O[C@H](O[C@H]2[C@H](O)[C@@H](O[C@H]3O[C@H](CO)[C@@H](O)[C@H](N)[C@H]3O)[C@H](N)C[C@@H]2N)[C@H](N)C[C@@H]1O [tobramycin]; test: as above
Description: as §1, with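 “tobramycin” for “colistin”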

colistin [3] = compound: T1, colistin; test: minimum concentration of killing, 1-log CFU reduction of biofilm (MCK90); higher = more biofilm tolerance
Description: as §1

colistin [4] = compound: T1, colistin; test: minimum concentration of killing, 2-log CFU reduction of biofilm (MCK99); higher = more biofilm tolerance
Description: as §1

tobramycin [5] = compound: T2, tobramycin; test: minimum concentration of killing, 1-log CFU reduction of biofilm (MCK90); higher = more biofilm tolerance
Description: as §1, with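 “tobramycin” for “colistin”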

tobramycin [6] = compound: T2, tobramycin; test: minimum concentration of killing, 2-log CFU reduction of biofilm (MCK99); higher = more biofilm tolerance
Description: as §1, with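 “tobramycin” for “colistin”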

colistin [7] = compound: T1, colistin; test: minimum concentration of killing, 4-log CFU reduction of biofilm (MCK99.99); higher = more biofilm tolerance
Description: as §1

tobramycin [8] = compound: T2, tobramycin; test: as above
Description: as §1, with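 “tobramycin” for “colistin”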

“Pseudomonas aeruginosa clinical isolate CH2522” was tested, and the “minimum concentration eradicating biofilm below detection limit” value (colistin [1]) was 256 µg/mL, the “minimum concentration eradicating biofilm below detection limit” value (tobramycin [2]) was 1020 µg/mL and the “minimum concentration of killing” value (colistin [3]) was 64 µg/mL. For the same test system, the “minimum concentration of killing” value (colistin [4]) was 64 µg/mL, the “minimum concentration of killing” value (tobramycin [5]) was 16 µg/mL and the “minimum concentration of killing” value (tobramycin [6]) was 16 µg/mL. For the same test system, the “minimum concentration of killing” value (colistin [7]) was 256 µg/mL and the “minimum concentration of killing” value (tobramycin [8]) was 1020 µg/mL.

For “Pseudomonas aeruginosa clinical isolate CH2527”, the “minimum concentration eradicating biofilm below detection limit” value (colistin [1]) was 256 µg/mL, the “minimum concentration eradicating biofilm below detection limit” value (tobramycin [2]) was 1020 µg/mL and the “minimum concentration of killing” value (colistin [3]) was 256 µg/mL. The “minimum concentration of killing” value (colistin [4]) was 256 µg/mL, the “minimum concentration of killing” value (tobramycin [5]) was 64 µg/mL and the “minimum concentration of killing” value (tobramycin [6]) was 64 µg/mL. The “minimum concentration of killing” value (colistin [7]) was 256 µg/mL and the “minimum concentration of killing” value (tobramycin [8]) was 256 µg/mL.

In the case of “Pseudomonas aeruginosa clinical isolate CH2582”, the “minimum concentration eradicating biofilm below detection limit” value (colistin [1]) is reported as 1020 µg/mL, the “minimum concentration eradicating biofilm below detection limit” value (tobramycin [2]) is reported as 64 µg/mL and the “minimum concentration of killing” value (colistin [3]) is reported as at most 1 µg/mL. For the same test system, the “minimum concentration of killing” value (colistin [4]) was 256 µg/mL, the “minimum concentration of killing” value (tobramycin [5]) was at most 1 µg/mL and the “minimum concentration of killing” value (tobramycin [6]) was 4 µg/mL. For the same test system, the “minimum concentration of killing” value (colistin [7]) was 256 µg/mL and the “minimum concentration of killing” value (tobramycin [8]) was 64 µg/mL.

With “Pseudomonas aeruginosa clinical isolate CH2597” the “minimum concentration eradicating biofilm below detection limit” value (colistin [1]) was 256 µg/mL, the “minimum concentration eradicating biofilm below detection limit” value (tobramycin [2]) was 256 µg/mL and the “minimum concentration of killing” value (colistin [3]) was 256 µg/mL. For the same test system, the “minimum concentration of killing” value (colistin [4]) was 256 µg/mL, the “minimum concentration of killing” value (tobramycin [5]) was 256 µg/mL and the “minimum concentration of killing” value (tobramycin [6]) was 256 µg/mL. For the same test system, the “minimum concentration of killing” value (colistin [7]) was 256 µg/mL and the “minimum concentration of killing” value (tobramycin [8]) was 256 µg/mL.

With “Pseudomonas aeruginosa clinical isolate CH2598” the “minimum concentration eradicating biofilm below detection limit” value (colistin [1]) was 256 µg/mL, the “minimum concentration eradicating biofilm below detection limit” value (tobramycin [2]) was 256 µg/mL and the “minimum concentration of killing” value (colistin [3]) was 256 µg/mL. For the same test system, the “minimum concentration of killing” value (colistin [4]) was 256 µg/mL, the “minimum concentration of killing” value (tobramycin [5]) was 4 µg/mL and the “minimum concentration of killing” value (tobramycin [6]) was 16 µg/mL. For the same test system, the “minimum concentration of killing” value (colistin [7]) was 256 µg/mL and the “minimum concentration of killing” value (tobramycin [8]) was 256 µg/mL.

In the case of “Pseudomonas aeruginosa clinical isolate CH2658”, the “minimum concentration eradicating biofilm below detection limit” value (colistin [1]) is reported as 256 µg/mL, the “minimum concentration eradicating biofilm below detection limit” value (tobramycin [2]) is reported as 256 µg/mL and the “minimum concentration of killing” value (colistin [3]) is reported as 64 µg/mL. The “minimum concentration of killing” value (colistin [4]) was 256 µg/mL, the “minimum concentration of killing” value (tobramycin [5]) was 4 µg/mL and the “minimum concentration of killing” value (tobramycin [6]) was 16 µg/mL. The “minimum concentration of killing” value (colistin [7]) was 256 µg/mL and the “minimum concentration of killing” value (tobramycin [8]) was 64 µg/mL.

“Pseudomonas aeruginosa clinical isolate CH5531” was tested, and the “minimum concentration eradicating biofilm below detection limit” value (tobramycin [2]) was 1020 µg/mL, the “minimum concentration of killing” value (tobramycin [5]) was 16 µg/mL and the “minimum concentration of killing” value (tobramycin [6]) was 256 µg/mL. For the same test system, the “minimum concentration of killing” value (tobramycin [8]) was 256 µg/mL.

“Pseudomonas aeruginosa clinical isolate CH5548” was tested, and the “minimum concentration eradicating biofilm below detection limit” value (tobramycin [2]) was 64 µg/mL, the “minimum concentration of killing” value (tobramycin [5]) was 4 µg/mL and the “minimum concentration of killing” value (tobramycin [6]) was 4 µg/mL. For the same test system, the “minimum concentration of killing” value (tobramycin [8]) was 16 µg/mL.

“Pseudomonas aeruginosa clinical isolate CH5591” was tested, and the “minimum concentration eradicating biofilm below detection limit” value (tobramycin [2]) was over 1020 µg/mL, the “minimum concentration of killing” value (tobramycin [5]) was 1020 µg/mL and the “minimum concentration of killing” value (tobramycin [6]) was 1020 µg/mL. The “minimum concentration of killing” value (tobramycin [8]) was over 1020 µg/mL.

For “Pseudomonas aeruginosa clinical isolate ESP057”, the “minimum concentration eradicating biofilm below detection limit” value (colistin [1]) was 256 µg/mL, the “minimum concentration eradicating biofilm below detection limit” value (tobramycin [2]) was 256 µg/mL and the “minimum concentration of killing” value (colistin [3]) was 256 µg/mL. For the same test system, the “minimum concentration of killing” value (colistin [4]) was 256 µg/mL, the “minimum concentration of killing” value (tobramycin [5]) was at most 1 µg/mL and the “minimum concentration of killing” value (colistin [7]) was 256 µg/mL. For the same test system, the “minimum concentration of killing” value (tobramycin [8]) was 256 µg/mL.

For “Pseudomonas aeruginosa clinical isolate F1659”, the “minimum concentration eradicating biofilm below detection limit” value (tobramycin [2]) was 1020 µg/mL, the “minimum concentration of killing” value (colistin [3]) was 16 µg/mL and the “minimum concentration of killing” value (colistin [4]) was 64 µg/mL. For the same test system, the “minimum concentration of killing” value (tobramycin [5]) was 4 µg/mL, the “minimum concentration of killing” value (tobramycin [6]) was 16 µg/mL and the “minimum concentration of killing” value (colistin [7]) was 64 µg/mL. The “minimum concentration of killing” value (tobramycin [8]) was 256 µg/mL.

“Pseudomonas aeruginosa clinical isolate F1689” was tested, and the “minimum concentration of killing” value (tobramycin [5]) was 4 µg/mL and the “minimum concentration of killing” value (tobramycin [6]) was 4 µg/mL.

In the case of “Pseudomonas aeruginosa clinical isolate F1748”, the “minimum concentration eradicating biofilm below detection limit” value (tobramycin [2]) is reported as 256 µg/mL, the “minimum concentration of killing” value (colistin [3]) is reported as 256 µg/mL and the “minimum concentration of killing” value (colistin [4]) is reported as 256 µg/mL. For the same test system, the “minimum concentration of killing” value (tobramycin [5]) was 4 µg/mL, the “minimum concentration of killing” value (tobramycin [6]) was 16 µg/mL and the “minimum concentration of killing” value (colistin [7]) was 256 µg/mL. For the same test system, the “minimum concentration of killing” value (tobramycin [8]) was 16 µg/mL.

In the case of “Pseudomonas aeruginosa clinical isolate F1801”, the “minimum concentration eradicating biofilm below detection limit” value (tobramycin [2]) is reported as 256 µg/mL, the “minimum concentration of killing” value (colistin [3]) is reported as 256 µg/mL and the “minimum concentration of killing” value (colistin [4]) is reported as 256 µg/mL. The “minimum concentration of killing” value (tobramycin [5]) was at most 1 µg/mL, the “minimum concentration of killing” value (tobramycin [6]) was 4 µg/mL and the “minimum concentration of killing” value (colistin [7]) was 256 µg/mL. The “minimum concentration of killing” value (tobramycin [8]) was 256 µg/mL.

“Pseudomonas aeruginosa clinical isolate F1883” was tested, and the “minimum concentration eradicating biofilm below detection limit” value (colistin [1]) was 1020 µg/mL, the “minimum concentration of killing” value (colistin [3]) was 16 µg/mL and the “minimum concentration of killing” value (colistin [4]) was 256 µg/mL. For the same test system, the “minimum concentration of killing” value (tobramycin [5]) was 64 µg/mL, the “minimum concentration of killing” value (tobramycin [6]) was 256 µg/mL and the “minimum concentration of killing” value (colistin [7]) was 1020 µg/mL.

For “Pseudomonas aeruginosa clinical isolate F1894”, the “minimum concentration eradicating biofilm below detection limit” value (colistin [1]) was 256 µg/mL, the “minimum concentration eradicating biofilm below detection limit” value (tobramycin [2]) was 256 µg/mL and the “minimum concentration of killing” value (colistin [3]) was 256 µg/mL. For the same test system, the “minimum concentration of killing” value (colistin [4]) was 256 µg/mL, the “minimum concentration of killing” value (tobramycin [5]) was 4 µg/mL and the “minimum concentration of killing” value (tobramycin [6]) was 16 µg/mL. For the same test system, the “minimum concentration of killing” value (colistin [7]) was 256 µg/mL.

In the case of “Pseudomonas aeruginosa clinical isolate F1997”, the “minimum concentration eradicating biofilm below detection limit” value (tobramycin [2]) is reported as over 1020 µg/mL, the “minimum concentration of killing” value (tobramycin [5]) is reported as 16 µg/mL and the “minimum concentration of killing” value (tobramycin [6]) is reported as 64 µg/mL. For the same test system, the “minimum concentration of killing” value (tobramycin [8]) was 1020 µg/mL.

For “Pseudomonas aeruginosa clinical isolate F2026”, the “minimum concentration eradicating biofilm below detection limit” value (colistin [1]) was 256 µg/mL, the “minimum concentration eradicating biofilm below detection limit” value (tobramycin [2]) was over 1020 µg/mL and the “minimum concentration of killing” value (colistin [3]) was 256 µg/mL. The “minimum concentration of killing” value (colistin [4]) was 256 µg/mL, the “minimum concentration of killing” value (tobramycin [6]) was 256 µg/mL and the “minimum concentration of killing” value (colistin [7]) was 256 µg/mL. The “minimum concentration of killing” value (tobramycin [8]) was over 1020 µg/mL.

In the case of “Pseudomonas aeruginosa clinical isolate F2029”, the “minimum concentration eradicating biofilm below detection limit” value (colistin [1]) is reported as 256 µg/mL, the “minimum concentration eradicating biofilm below detection limit” value (tobramycin [2]) is reported as 256 µg/mL and the “minimum concentration of killing” value (colistin [3]) is reported as 256 µg/mL. The “minimum concentration of killing” value (colistin [4]) was 256 µg/mL, the “minimum concentration of killing” value (colistin [7]) was 256 µg/mL and the “minimum concentration of killing” value (tobramycin [8]) was 256 µg/mL.

In the case of “Pseudomonas aeruginosa clinical isolate F2030”, the “minimum concentration eradicating biofilm below detection limit” value (colistin [1]) is reported as 256 µg/mL, the “minimum concentration of killing” value (colistin [3]) is reported as 64 µg/mL and the “minimum concentration of killing” value (colistin [4]) is reported as 256 µg/mL. For the same test system, the “minimum concentration of killing” value (colistin [7]) was 256 µg/mL and the “minimum concentration of killing” value (tobramycin [8]) was 1020 µg/mL.

In the case of “Pseudomonas aeruginosa clinical isolate F2034”, the “minimum concentration eradicating biofilm below detection limit” value (colistin [1]) is reported as 256 µg/mL, the “minimum concentration of killing” value (colistin [3]) is reported as 64 µg/mL and the “minimum concentration of killing” value (colistin [4]) is reported as 64 µg/mL. The “minimum concentration of killing” value (colistin [7]) was 256 µg/mL.

With “Pseudomonas aeruginosa clinical isolate F2035” the “minimum concentration eradicating biofilm below detection limit” value (colistin [1]) was 1020 µg/mL, the “minimum concentration of killing” value (colistin [3]) was 64 µg/mL and the “minimum concentration of killing” value (colistin [4]) was 64 µg/mL. For the same test system, the “minimum concentration of killing” value (colistin [7]) was 256 µg/mL.

“Pseudomonas aeruginosa clinical isolate F2044” was tested, and the “minimum concentration eradicating biofilm below detection limit” value (colistin [1]) was 256 µg/mL.

With “Pseudomonas aeruginosa clinical isolate F2045” the “minimum concentration eradicating biofilm below detection limit” value (colistin [1]) was over 1020 µg/mL.

In the case of “Pseudomonas aeruginosa clinical isolate F2059”, the “minimum concentration eradicating biofilm below detection limit” value (colistin [1]) is reported as 256 µg/mL.

Reference: the supplement of paper PMC8920030
